Read-outs that look alike come from different tables or passages of the source.
Target: T1, BRM (Homo sapiens, UniProt P51531)
T1 construct: In-Cell Western Screen of BRM Degradation in SW1573 Cells; endogenous in cells; host or cells: SW1573
Experiment: In-cell Western screen of BRM degradation in SW1573 cells (Dmax and DC50)
Format: cell-based
Conditions: for Dmax: read-out: Dmax (%) (% degraded)
Summary of the method: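 Near-infrared imaging on a LI-COR Odyssey (800 and 680 nm channels) quantifies BRM remaining in fixed SW1573 cells. Cells are dosed for 18-20 h at 0.1% final DMSO, and degradation is expressed as Dmax and DC50.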

[1] = BRM degradation, SW1573 cells, read-out: DC50
[2] = BRM degradation, SW1573 cells, tested at the top concentration of between 0.3 and 10 μM

T1 sequence (P51531 whole entry): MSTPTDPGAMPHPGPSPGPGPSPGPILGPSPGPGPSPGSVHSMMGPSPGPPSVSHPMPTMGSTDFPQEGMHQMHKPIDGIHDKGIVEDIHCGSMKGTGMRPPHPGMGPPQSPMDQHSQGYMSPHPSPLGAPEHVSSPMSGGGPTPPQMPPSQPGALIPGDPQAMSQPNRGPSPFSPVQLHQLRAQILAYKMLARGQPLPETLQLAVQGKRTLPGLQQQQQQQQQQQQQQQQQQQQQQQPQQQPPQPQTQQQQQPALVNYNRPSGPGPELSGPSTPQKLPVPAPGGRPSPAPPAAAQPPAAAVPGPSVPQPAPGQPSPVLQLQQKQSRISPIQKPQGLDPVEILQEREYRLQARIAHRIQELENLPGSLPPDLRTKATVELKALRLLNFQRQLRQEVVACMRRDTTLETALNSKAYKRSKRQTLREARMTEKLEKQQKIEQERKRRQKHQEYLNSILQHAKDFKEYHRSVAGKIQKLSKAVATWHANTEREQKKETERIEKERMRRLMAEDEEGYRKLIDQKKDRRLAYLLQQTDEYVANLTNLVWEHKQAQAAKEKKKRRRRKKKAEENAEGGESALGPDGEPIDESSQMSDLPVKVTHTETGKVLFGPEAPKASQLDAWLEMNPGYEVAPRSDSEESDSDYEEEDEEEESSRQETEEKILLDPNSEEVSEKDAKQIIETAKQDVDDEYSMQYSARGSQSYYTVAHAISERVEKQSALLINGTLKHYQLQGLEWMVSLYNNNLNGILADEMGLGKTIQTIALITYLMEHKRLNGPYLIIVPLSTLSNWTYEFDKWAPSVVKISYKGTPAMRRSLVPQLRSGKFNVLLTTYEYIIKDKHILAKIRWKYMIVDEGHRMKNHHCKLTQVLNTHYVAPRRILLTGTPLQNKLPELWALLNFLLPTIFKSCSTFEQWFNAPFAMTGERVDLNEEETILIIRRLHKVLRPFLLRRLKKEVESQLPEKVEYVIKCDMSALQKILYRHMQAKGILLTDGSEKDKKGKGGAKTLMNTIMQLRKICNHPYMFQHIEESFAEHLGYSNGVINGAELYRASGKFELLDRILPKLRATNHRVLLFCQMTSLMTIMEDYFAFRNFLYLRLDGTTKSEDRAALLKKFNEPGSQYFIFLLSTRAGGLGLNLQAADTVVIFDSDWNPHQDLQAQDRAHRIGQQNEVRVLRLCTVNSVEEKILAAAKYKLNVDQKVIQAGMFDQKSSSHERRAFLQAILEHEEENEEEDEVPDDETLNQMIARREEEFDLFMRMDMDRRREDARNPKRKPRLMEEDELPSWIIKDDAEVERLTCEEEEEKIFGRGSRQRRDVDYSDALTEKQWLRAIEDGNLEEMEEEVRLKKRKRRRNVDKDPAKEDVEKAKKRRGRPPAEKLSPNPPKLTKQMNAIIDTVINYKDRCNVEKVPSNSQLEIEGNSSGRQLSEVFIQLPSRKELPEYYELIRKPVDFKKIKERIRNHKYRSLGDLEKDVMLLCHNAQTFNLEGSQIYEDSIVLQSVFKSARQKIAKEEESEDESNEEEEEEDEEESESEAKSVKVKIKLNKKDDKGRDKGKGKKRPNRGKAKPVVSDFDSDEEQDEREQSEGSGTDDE

Structure (SMILES)	DC50 [1]	Dmax (BRM degradation, SW1573 cells, when tested at the top concentration of between 0.3 and 10 μM)	DC50 (target protein degradation, read-out: BRM DC50)	Dmax [2]
Cc1ncsc1-c1ccc(CNC(=O)[C@@H]2C[C@@H](O)CN2C(=O)[C@@H](NC(=O)COCCOCCN2CCN(CCCc3cc(N4C5CCC4CN(c4cc(-c6ccccc6O)nnc4N)C5)ccn3)CC2)C(C)(C)C)cc1 [compound 40, (2S,4R)-1-[(2S)-2-[2-[2-(2-[4-[3-(4-[3-[3-amino-6-(2-hydroxyphenyl)pyridazin-4-yl]-3,8-diazabicyclo[3.2.1]octan-8-yl]pyridin-2-yl)propyl]piperazin-1-yl]ethoxy)ethoxy]acetamido]-3,3-dimethylbutanoyl]-4-hydroxy-N-[[4-(4-methyl-1,3-thiazol-5-yl)phenyl]methyl]pyrrolidine-2-carboxamide]	> 30 nM	< 50%	–	–
Cc1ncsc1-c1ccc([C@H](C)NC(=O)[C@@H]2C[C@@H](O)CN2C(=O)[C@H](c2cc(OCC[C@H]3CC[C@H](O[C@H]4C[C@H](Oc5cc(N6C7CCC6CN(c6cc(-c8ccccc8O)nnc6N)C7)ccn5)C4)CC3)no2)C(C)C)cc1 [compound 487, (2S,4R)-1-((2S)-2-(3-(2-((1R,4S)-4-((1r,3S)-3-((4-(3-(3-amino-6-(2-hydroxyphenyl)pyridazin-4-yl)-3,8-diazabicyclo[3.2.1]octan-8-yl)pyridin-2-yl)oxy)cyclobutoxy)cyclohexyl)ethoxy)isoxazol-5-yl)-3-methylbutanoyl)-4-hydroxy-N-((S)-1-(4-(4-methylthiazol-5-yl)phenyl)ethyl)pyrrolidine-2-carboxamide]	–	–	> 30 nM	–
Cc1ncsc1-c1ccc([C@H](C)NC(=O)[C@@H]2C[C@@H](O)CN2C(=O)[C@@H](c2cc(OCCN3CCC(O[C@H]4C[C@H](C#Cc5cc(N6C7CCC6CN(c6cc(-c8ccccc8O)nnc6N)C7)ccn5)C4)CC3)no2)C(C)C)cc1 [compound 216, (2S,4R)-1-((2R)-2-(3-(2-(4-((1r,3R)-3-((4-(3-(3-amino-6-(2-hydroxyphenyl)pyridazin-4-yl)-3,8-diazabicyclo[3.2.1]octan-8-yl)pyridin-2-yl)ethynyl)cyclobutoxy)piperidin-1-yl)ethoxy)isoxazol-5-yl)-3-methylbutanoyl)-4-hydroxy-N-((S)-1-(4-(4-methylthiazol-5-yl)phenyl)ethyl)pyrrolidine-2-carboxamide]	< 2.5 nM	–	–	> 75%
Cc1ncsc1-c1ccc([C@H](C)NC(=O)[C@@H]2C[C@@H](O)CN2C(=O)[C@H](c2cc(OCCC3CCN(C[C@H]4C[C@H](Oc5cc(N6C7CCC6CN(c6cc(-c8ccccc8O)nnc6N)C7)ccn5)C4)CC3)no2)C(C)C)cn1 [compound 287, (2S,4R)-1-((2S)-2-(3-(2-(1-(((1r,3S)-3-((4-(3-(3-amino-6-(2-hydroxyphenyl)pyridazin-4-yl)-3,8-diazabicyclo[3.2.1]octan-8-yl)pyridin-2-yl)oxy)cyclobutyl)methyl)piperidin-4-yl)ethoxy)isoxazol-5-yl)-3-methylbutanoyl)-4-hydroxy-N-((S)-1-(6-(4-methylthiazol-5-yl)pyridin-3-yl)ethyl)pyrrolidine-2-carboxamide]	> 30 nM	–	–	–
CC(C)C(C(=O)N1C[C@H](O)C[C@H]1C(=O)N[C@@H](C)c1ccc(-c2scnc2CN(C)C)cc1)c1cc(OCCN2CCN(CCOc3cc(N4C5CCC4CN(c4cc(-c6ccccc6O)nnc4N)C5)ccn3)CC2)no1 (stereo partly drawn) [compound 167, (2S,4R)-1-(2-(3-(2-(4-(2-((4-(3-(3-amino-6-(2-hydroxyphenyl)pyridazin-4-yl)-3,8-diazabicyclo[3.2.1]octan-8-yl)pyridin-2-yl)oxy)ethyl)piperazin-1-yl)ethoxy)isoxazol-5-yl)-3-methylbutanoyl)-N-((S)-1-(4-(4-((dimethylamino)methyl)thiazol-5-yl)phenyl)ethyl)-4-hydroxypyrrolidine-2-carboxamide]	10 to 30 nM	–	–	> 75%
